Reference: the supplement of paper PMC4932681
Where “and” joins values, the source holds several entries; their conditions need not be identical. Identical values can stand only once.

Tests used:
Assay in all cases: viability inhibition at highest dose (% inhibition); higher = more growth inhibition
[1] = tested on: BT-474 Tam1; conditions: 4-OH-tamoxifen in medium 1 µM; 72 h
Procedure: (§1)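 Percent inhibition of viability (CellTiter-Glo, 72 h) at the highest tested concentration (D5), normalised to DMSO (0%) and 100 µM benzethonium chloride (100%). Resistant lines and the 'in 1µM tamoxifen' arms were tested in 1 µM 4-OH-tamoxifen.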

[2] = tested on: ZR-75-1; conditions: 72 h
Procedure: as §1

[3] = tested on: BT-474 Tam2; conditions: 4-OH-tamoxifen in medium 1 µM; 72 h
Procedure: as §1

[4] = tested on: ZR-75-1 Tam2; conditions: 4-OH-tamoxifen in medium 1 µM; 72 h
Procedure: as §1

[5] = tested on: MCF-7; conditions: 72 h
Procedure: as §1

[6] = tested on: MCF-7 Tam1; conditions: 4-OH-tamoxifen in medium 1 µM; 72 h
Procedure: as §1

[7] = tested on: T-47D Tam2; conditions: 4-OH-tamoxifen in medium 1 µM; 72 h
Procedure: as §1

[8] = tested on: BT-474; conditions: 72 h
Procedure: as §1

[9] = tested on: ZR-75-1 Tam1; conditions: 4-OH-tamoxifen in medium 1 µM; 72 h
Procedure: as §1

[10] = tested on: T-47D Tam1; conditions: 4-OH-tamoxifen in medium 1 µM; 72 h
Procedure: as §1

[11] = tested on: T-47D; conditions: 72 h
Procedure: as §1

Row | Compound | viability inhibition at highest dose [1] | viability inhibition at highest dose ([2]; 4-OH-tamoxifen in medium 0 µM) | viability inhibition at highest dose ([2]; 4-OH-tamoxifen in medium 1 µM) | viability inhibition at highest dose [3] | viability inhibition at highest dose [4] | viability inhibition at highest dose ([5]; 4-OH-tamoxifen in medium 0 µM) | viability inhibition at highest dose ([5]; 4-OH-tamoxifen in medium 1 µM) | viability inhibition at highest dose [6] | viability inhibition at highest dose [7] | viability inhibition at highest dose ([8]; 4-OH-tamoxifen in medium 0 µM) | viability inhibition at highest dose ([8]; 4-OH-tamoxifen in medium 1 µM) | viability inhibition at highest dose [9] | viability inhibition at highest dose [10] | viability inhibition at highest dose ([11]; 4-OH-tamoxifen in medium 0 µM) | viability inhibition at highest dose ([11]; 4-OH-tamoxifen in medium 1 µM)
1 | Cc1ccc(C(=O)N(CCCN)[C@@H](c2oc3cc(Cl)ccc3c(=O)c2Cc2ccccc2)C(C)C)cc1 (drug 100 nM) | -6.24 | -10.8 | -9.18 | -0.695 | -13.3 | 5.45 | 19.8 | -9.67 | 7.13 | -10.2 | -22.8 | -7.2 | -2.81 | -16.7 | -5.16
2 | CC(=O)Nc1cccc(-n2c(=O)n(C3CC3)c(=O)c3c(Nc4ccc(I)cc4F)n(C)c(=O)c(C)c32)c1 (drug 250 nM) | 8.35 | -3.05 | 5.16 | -15.8 | 1.99 | 2.23 | 17.3 | 10.6 | 26.5 | -8.37 | 18.2 | 2.29 | 12.5 | -2.33 | 10.4
3 | C=CC(=O)N1CCC[C@@H](n2nc(-c3ccc(Oc4ccccc4)cc3)c3c(N)ncnc32)C1 (drug 1000 nM) | 98.2 | 7.99 | 7.55 | 96.5 | 5.37 | -5.41 | 23 | -17.1 | 14.1 | 69.5 | 94.6 | 1.82 | 19.8 | -1.5 | -2.82
4 | CCN(CC)CCNC(=O)c1c(C)[nH]c(/C=C2\C(=O)Nc3ccc(F)cc32)c1C (drug 1000 nM) | 13.8 | 5.31 | -5.7 | 1.68 | 2.39 | -3.88 | -9.09 | 7.78 | 3.79 | -3.86 | 33.8 | -5.76 | 6.06 | -6.3 | 13.4
5 | CN1CCC(COc2cnc(-c3cccc(Cn4nc(-c5cccc(C#N)c5)ccc4=O)c3)nc2)CC1 (drug 1000 nM) | 4.43 | -2.72 | 2.17 | 8.15 | -3.94 | -4.34 | 13.2 | 7.93 | -1.11 | 2.72 | -6.04 | 0.277 | 57.5 | -10.4 | -5.78
6 | COc1ncc(-c2ccc3nccc(-c4ccnnc4)c3c2)cc1NS(=O)(=O)c1ccc(F)cc1F (drug 1000 nM) | 98.5 | 76.9 | 72.3 | 98 | 86.4 | 68.6 | 85 | 60.1 | 78 | 90 | 97.1 | 83 | 69.3 | 71.6 | 77.9
7 | Cc1ccc(C(=O)Nc2ccc(CN3CCN(C)CC3)c(C(F)(F)F)c2)cc1C#Cc1cnc2cccnn12 (drug 1000 nM) | 35.9 | 3.08 | 12 | 6 | 12 | 11.5 | 25.9 | 12.7 | 37.9 | -2.54 | 36.2 | 12.3 | 70.1 | 20.5 | 33.7
8 | Cc1cccc(-c2nn3c(c2-c2ccnc4ccc(C(N)=O)cc24)CCC3)n1 (drug 1000 nM) | -3.5 | -10.5 | -14.4 | -0.548 | 0.591 | -2 | 17.5 | -5.09 | -11.8 | -8.01 | -14 | -1.45 | 8.11 | -10.5 | -3.66
9 | Cc1cnc(NC(=O)Nc2cc(Br)c(C)cc2OC[C@@H]2CNCCO2)cn1 (drug 1000 nM) | 5 | -7.46 | -6.55 | -6.01 | -1.67 | 26.1 | 16.2 | -4.01 | -5.37 | -10.6 | 0.148 | -1.46 | -0.37 | -9.68 | -8.57
10 | Cn1cc(CNCC2CCN(c3ncc(C(=O)NO)cn3)CC2)c2ccccc21 (drug 1000 nM) | 83.8 | 47.6 | 37.9 | 74.7 | 48.7 | 89.3 | 90 | 21.6 | 71.1 | 88.3 | 94.3 | 37.4 | 86.6 | 94.3 | 94.1
11 | CC(=O)c1c(C)c2cnc(Nc3ccc(N4CCNCC4)cn3)nc2n(C2CCCC2)c1=O (drug 10000 nM) | 6.18 | 2.14 | 20.6 | 9.88 | 24.2 | 33.1 | 27.9 | 21.2 | 21.5 | 1.33 | 4.19 | 18.7 | 29.5 | 28.1 | 0.74
12 | CCc1cncnc1N1CCN(Cc2nc3ccc(C(F)(F)F)cc3[nH]2)CC1 (drug 10000 nM) | 68.5 | 18.5 | 28.3 | 41.4 | 25.5 | 37.2 | 33.2 | 20.7 | 31 | 36 | 53.7 | 17.9 | 33.4 | 33 | 15.3
13 | CN(C)C[C@@H]1CCn2cc(c3ccccc32)C2=C(C(=O)NC2=O)c2cn(c3ccccc23)CCO1 (drug 10000 nM) | 100 | 45.5 | 70.9 | 98 | 47.1 | 99.8 | 69.5 | 22.1 | 70.2 | 76 | 101 | 37.7 | 71.2 | 72.1 | 97.4
14 | CNCc1ccc(-c2[nH]c3cc(F)cc4c3c2CCNC4=O)cc1 (drug 10000 nM) | 2.87 | -4.71 | -4.07 | -16.6 | 0.703 | 6.6 | 1.15 | -2.56 | 6.84 | -3.44 | -1.93 | -4.62 | 1.19 | -7.27 | -9.52
15 | CO[C@@H](C(=O)N1Cc2[nH]nc(NC(=O)c3ccc(N4CCN(C)CC4)cc3)c2C1)c1ccccc1 (drug 10000 nM) | -17.9 | -27.9 | -21.1 | -18.2 | -19.5 | 20.9 | 7.45 | 8.32 | 34.4 | -18.6 | -36.3 | -23.1 | 38.4 | 29.4 | 17.6
16 | COc1cc(Nc2ncc(F)c(Nc3ccc4c(n3)N(COP(=O)(O)O)C(=O)C(C)(C)O4)n2)cc(OC)c1OC (drug 10000 nM) | 55.4 | 7.12 | 20.8 | 2.03 | 31.6 | 34.7 | 70.4 | 47.8 | 47.1 | -18 | 41.4 | 28.5 | 49.3 | 40.2 | 36.8
17 | COc1ccc(-c2cc3c(C)nc(N)nc3n([C@H]3CC[C@H](OCCO)CC3)c2=O)cn1 (drug 10000 nM) | 100 | 83.5 | 76.1 | 94.3 | 88.1 | 79.9 | 82.6 | 67.1 | 88.2 | 96.1 | 100 | 86.8 | 92.6 | 94.6 | 93.7
18 | C[C@@]1(C(=O)Nc2ccc(F)nc2)CCCN1c1nc(Nc2cc(C3CC3)n[nH]2)c2cccn2n1 (drug 10000 nM) | 15.1 | -26.3 | -1.41 | 6.42 | -9.78 | 67.7 | 81.4 | 68.9 | 59.2 | 13 | 23.1 | -16.4 | 46.5 | 48.6 | 41.9
19 | Cc1cc(Nc2cc(CN3CCOCC3)c3nc(C)c(Cc4ccc(Cl)cc4F)n3n2)n[nH]1 (drug 10000 nM) | 96.7 | -23.2 | 0.926 | 96.4 | 16.8 | 66.7 | 68 | 47.8 | 46.2 | 5.76 | 66.4 | -2.02 | 45.6 | 21.2 | 24.4
20 | Cn1cc(C2=Nc3cc(NC(=O)C(N)C4CCCCC4)cc4c3C2=CNNC4=O)cn1 (stereo not given) (drug 10000 nM) | 3.49 | 8.7 | -11.4 | -6.26 | -2.91 | 31 | 12.3 | 1.36 | 26.5 | 3.65 | -3.68 | -5.99 | 28.7 | 4.48 | 28.4
21 | N#CC[C@H](C1CCCC1)n1cc(-c2ncnc3[nH]ccc23)cn1 (drug 10000 nM) | -28.1 | -0.421 | -1.41 | -31.9 | -7.38 | 1.33 | -20.6 | -11.4 | -5.81 | -21.3 | -53.3 | -14.2 | -14.3 | -12.9 | -14.9
22 | N#Cc1ccc(COC[C@H]2O[C@@H](n3c(NCc4ccc(Cl)c(Cl)c4)nc4c(N)ncnc43)[C@H](O)[C@@H]2O)cc1 (drug 10000 nM) | 49.5 | 55.3 | 49.5 | 38.6 | 51.2 | 46.5 | 49.6 | 25.6 | 34.5 | 20.7 | 65.8 | 46.4 | 48 | 42.5 | 29
23 | NC(=O)c1ccc(I)c([N+](=O)[O-])c1 (drug 10000 nM) | -6.12 | -1.66 | 4.93 | -6.48 | -0.492 | 2.33 | -5.76 | 2 | 14.7 | 3.04 | -11 | 7.66 | 7.73 | -4.63 | -1.38
24 | O=C(NC[C@H](O)CO)c1ccncc1Nc1ccc(I)cc1F (drug 10000 nM) | 13.6 | 7.13 | 10 | 6.28 | 7.84 | 35.6 | 19.8 | 12.7 | 34 | 17.2 | 48 | 2.34 | 35.6 | 10.4 | -8.51
25 | c1ccc2c(CCNc3ccc(Nc4ccncc4)cc3)c[nH]c2c1 (drug 10000 nM) | 91.8 | 14 | 25.5 | 37.9 | 32.2 | 62.4 | 22.2 | 12.8 | 22.6 | -5.93 | 78 | 21.8 | 20.6 | 16.5 | 9.19
26 | Nc1nc(=O)c2c([nH]1)NCC(CNc1ccc(C(=O)N[C@@H](CCC(=O)O)C(=O)O)cc1)N2C=O (mixture of isomers) [Folinic acid] (drug 990000 nM) | 3.17 | 3.64 | -3.47 | 3.09 | 5.23 | 0.626 | 3.23 | -1.58 | -14.6 | 1.3 | -8.34 | 1.59 | -0.031 | 3.41 | -2.78
27 | COc1cc2c(cc1O)CC[C@@H]1[C@@H]2CC[C@]2(C)[C@@H](O)CC[C@@H]12 [2-methoxyestradiol  (Panzem)] (drug 10000 nM) | 27.1 | 36.8 | 2.3 | 24.3 | 3.21 | 24.8 | 17.7 | -11.2 | 29.8 | 48.9 | 63.3 | 6.41 | 24.5 | 32.6 | -2.41
28 | CC/C(=C(\c1ccc(O)cc1)c1ccc(OCCN(C)C)cc1)c1ccccc1 [4-hydroxytamoxifen] (drug 10000 nM) | 97.8 | 8.03 | 33.1 | 96 | 21.5 | 52.3 | 83.1 | 46.3 | 79.7 | 23.3 | 97.2 | 17.8 | 38.4 | 20.4 | 59
29 | Cc1nc(Nc2ncc(C(=O)Nc3c(C)cccc3Cl)s2)cc(N2CCN(CCO)CC2)n1 [Dasatinib] (drug 1000 nM) | 37.1 and 33.4 | -61.6 and -72.5 | -39.5 and -41.9 |  | -36.2 and -32.2 |  | 12.7 and 8.15 |  | 35.6 and 31.4 |  | 1.98 and 3.29 | -34.5 and -23.8 | 35.9 and 30.8 |  | 30.8 and 16.6
